Reference: PMC6978637 (Saudi Pharmaceutical Journal : SPJ, 2019)
Values joined by “and” are separate entries in the source; they are usually repeats but may differ in a detail not shown here. Equal entries are not always repeated. Where two headings read alike, the source gives them in different places.

Experiments:
[1] = target: FGFR1 (Homo sapiens, UniProt P11362); test: Z'-LYTE kinase enzyme inhibition assay, FGFR1; assay type: biochemical
[2] = test system: FGFR1; test: Z'-LYTE kinase enzyme inhibition assay, FGFR1; assay type: biochemical; settings: for FGFR1-SI: selectivity index IC50/IC50, lowest IC50 of the compound = 1; for FGFR selectivity (in words): among FGFR1-4
[3] = target: FGFR3 (Homo sapiens, UniProt P22607); test: biochemical; assay type: biochemical
Chain of FGFR3 (Homo sapiens, UniProt P22607) (P22607 23-806): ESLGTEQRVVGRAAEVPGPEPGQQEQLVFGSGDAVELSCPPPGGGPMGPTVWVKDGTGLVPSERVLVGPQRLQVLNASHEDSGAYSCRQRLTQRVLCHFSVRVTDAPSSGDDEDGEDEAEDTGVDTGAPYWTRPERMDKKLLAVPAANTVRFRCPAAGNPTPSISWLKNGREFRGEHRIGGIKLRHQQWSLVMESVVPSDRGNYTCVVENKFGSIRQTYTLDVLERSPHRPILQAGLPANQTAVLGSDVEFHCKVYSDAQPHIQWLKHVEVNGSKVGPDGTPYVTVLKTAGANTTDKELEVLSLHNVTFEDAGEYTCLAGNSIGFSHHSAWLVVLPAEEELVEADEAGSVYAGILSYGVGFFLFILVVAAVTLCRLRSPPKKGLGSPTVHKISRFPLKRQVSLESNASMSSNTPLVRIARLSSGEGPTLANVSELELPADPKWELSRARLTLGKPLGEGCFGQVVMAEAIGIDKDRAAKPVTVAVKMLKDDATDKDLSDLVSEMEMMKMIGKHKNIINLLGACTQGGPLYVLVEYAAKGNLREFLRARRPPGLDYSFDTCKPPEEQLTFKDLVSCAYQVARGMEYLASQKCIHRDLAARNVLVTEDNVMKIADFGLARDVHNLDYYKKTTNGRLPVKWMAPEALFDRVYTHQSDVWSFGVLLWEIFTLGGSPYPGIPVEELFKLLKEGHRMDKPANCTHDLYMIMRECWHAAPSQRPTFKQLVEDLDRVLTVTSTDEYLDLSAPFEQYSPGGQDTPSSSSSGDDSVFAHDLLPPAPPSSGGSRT

[4] = test system: FGFR3; test: biochemical; assay type: biochemical; settings: for FGFR selectivity (in words): among FGFR1-4
[5] = target: FGFR4 (Homo sapiens, UniProt P22455); test: biochemical; assay type: biochemical
Chain of FGFR4 (P22455 22-802): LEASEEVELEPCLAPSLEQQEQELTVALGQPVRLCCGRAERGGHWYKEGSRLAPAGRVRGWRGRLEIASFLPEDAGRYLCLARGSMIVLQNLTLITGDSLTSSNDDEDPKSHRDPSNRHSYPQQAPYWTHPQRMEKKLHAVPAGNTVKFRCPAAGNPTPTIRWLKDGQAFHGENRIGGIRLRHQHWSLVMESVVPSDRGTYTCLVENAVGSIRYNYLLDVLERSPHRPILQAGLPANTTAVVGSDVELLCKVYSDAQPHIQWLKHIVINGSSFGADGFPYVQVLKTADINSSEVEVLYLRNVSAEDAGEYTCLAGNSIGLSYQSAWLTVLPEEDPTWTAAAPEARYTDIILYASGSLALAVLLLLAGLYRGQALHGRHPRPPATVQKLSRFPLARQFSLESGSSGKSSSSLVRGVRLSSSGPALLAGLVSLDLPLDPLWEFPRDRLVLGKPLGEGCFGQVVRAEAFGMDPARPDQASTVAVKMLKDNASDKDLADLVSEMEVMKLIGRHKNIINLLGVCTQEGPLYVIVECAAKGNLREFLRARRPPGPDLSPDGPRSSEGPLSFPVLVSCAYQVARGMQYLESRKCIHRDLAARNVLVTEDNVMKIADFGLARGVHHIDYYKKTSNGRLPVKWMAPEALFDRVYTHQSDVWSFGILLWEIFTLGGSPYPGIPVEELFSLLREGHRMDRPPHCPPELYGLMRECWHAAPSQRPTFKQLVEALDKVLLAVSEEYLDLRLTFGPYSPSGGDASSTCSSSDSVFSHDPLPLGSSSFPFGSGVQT

[6] = test system: NIH-3T3 cells; test: WST-1 cytotoxicity assay; assay type: cell-based, mouse; settings: Mus musculus, NIH3T3, 48 h, read-out: NIH-3T3 Cells IC50
[7] = selectivity index IC50/IC50, lowest IC50 of the compound = 1

Chain of FGFR1 (Homo sapiens, UniProt P11362) (P11362 22-822): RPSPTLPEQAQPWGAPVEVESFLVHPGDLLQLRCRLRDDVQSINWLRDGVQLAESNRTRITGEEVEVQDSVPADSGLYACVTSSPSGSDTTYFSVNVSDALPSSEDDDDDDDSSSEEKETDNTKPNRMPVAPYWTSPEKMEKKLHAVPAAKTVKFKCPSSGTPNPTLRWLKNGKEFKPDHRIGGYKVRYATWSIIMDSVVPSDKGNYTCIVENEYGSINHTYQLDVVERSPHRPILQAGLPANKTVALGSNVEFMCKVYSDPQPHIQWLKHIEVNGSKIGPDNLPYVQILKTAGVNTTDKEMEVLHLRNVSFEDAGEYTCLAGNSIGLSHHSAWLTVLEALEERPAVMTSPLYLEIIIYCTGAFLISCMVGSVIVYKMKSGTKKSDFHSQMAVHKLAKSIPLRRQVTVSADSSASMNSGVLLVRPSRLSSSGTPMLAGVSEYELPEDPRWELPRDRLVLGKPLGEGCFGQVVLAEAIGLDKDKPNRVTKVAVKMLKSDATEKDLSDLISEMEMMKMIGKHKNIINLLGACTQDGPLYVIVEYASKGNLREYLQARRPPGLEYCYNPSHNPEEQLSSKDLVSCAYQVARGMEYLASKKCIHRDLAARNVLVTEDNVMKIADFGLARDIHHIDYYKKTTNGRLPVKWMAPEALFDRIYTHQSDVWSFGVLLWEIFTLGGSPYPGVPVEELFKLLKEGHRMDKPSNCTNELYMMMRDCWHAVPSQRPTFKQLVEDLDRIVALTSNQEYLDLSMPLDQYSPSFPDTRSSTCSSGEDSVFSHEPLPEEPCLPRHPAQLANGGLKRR

| SMILES | IC50 ([1]; FGFR1-IC50) [nM] | FGFR1-SI [2] | IC50 ([3]; FGFR3-IC50) | FGFR selectivity (in words) [4] | FGFR3-SI [4, 7] | FGFR4-SI [5] | IC50 [5] [nM] | IC50 [6] [nM] | FGFR selectivity (in words) [2] | FGFR3-SI [4] | IC50 ([1]; read-out: FGFR1-IC50) [nM] | IC50 ([3]; read-out: FGFR3-IC50) [nM] | IC50 ([5]; read-out: FGFR4-IC50) [nM] |
| --- | --- | --- | --- | --- | --- | --- | --- | --- | --- | --- | --- | --- | --- |
| O=C1Nc2ccc(-c3ccc(C(=O)N4CCOCC4)cc3)cc2/C1=C\c1ccc(N2CCOCC2)cc1 [Compound A3, (E)-5-[4-(morpholin-4-carbonyl)phenyl]-3-(4-morpholinobenzylidene)indolin-2-one] | 686 ± 27.7 | 13.054 | 52.5 ± 4.7 nM | for FGFR3 | 1 | 69.878 | 3670 ± 290 | 3260 ± 121 |  |  |  |  |  |
| O=C1Nc2ccc(-c3ccc(C(=O)N4CCCCC4)cc3)cc2/C1=C\c1ccc(N2CCOCC2)cc1 [Compound A4, (E)-3-(4-morpholinobenzylidene)-5-[4-(piperidine-1-carbonyl)phenyl]indolin-2-one] | 107 ± 3.84 | 1 | 195 ± 5.61 nM |  |  | 141.176 | 15100 ± 313 | 400 ± 100 | selectivity to FGFR1 and FGFR3 | 1.819 |  |  |  |
| O=C1Nc2ccc(-c3ccc(C(=O)N4CCCC4)cc3)cc2/C1=C\c1ccc(N2CCOCC2)cc1 [Compound A6, (E)-3-(4-morpholinobenzylidene)-5-[4-(pyrrolidine-1-carbonyl)phenyl]indolin-2-one] | 49 ± 0.688 | 1 | 1090 ± 47.3 nM |  |  | 16.785 | 823 ± 108 | 818 ± 241 | selectivity to FGFR1 | 22.297 |  |  |  |
| O=C1Nc2ccc(-c3ccc(C(=O)N4CCOCC4)cc3)cc2/C1=C\c1ccc(N2CCC(O)CC2)cc1 [Compound A9, (E)-3-[4-(4-hydroxypiperidin-1-yl)benzylidene]-5-[4-(morpholine-4-carbonyl)phenyl]indolin-2-one] | 64.4 ± 1.23 | 3.369 | 19.1 ± 3.22 nM | for FGFR3 | 1 | 927.339 | 17700 ± 329 | 1140 ± 220 |  |  |  |  |  |
| O=C1Nc2ccc(-c3ccc(C(=O)N4CCCCC4)cc3)cc2/C1=C\c1ccc(N2CCC(O)CC2)cc1 [Compound A10, (E)-3-[4-(4-hydroxypiperidin-1-yl)benzylidene]-5-[4-(piperidine-1-carbonyl)phenyl]indolin-2-one] | 344.7 ± 3.41 | 20.006 | 17.2 ± 0.419 nM | for FGFR3 | 1 | 1343.587 | 23200 ± 271 | 983 ± 158 |  |  |  |  |  |
| CN1CCN(C(=O)c2ccc(-c3ccc4c(c3)/C(=C\c3ccc(N5CCC(O)CC5)cc3)C(=O)N4)cc2)CC1 [Compound A11, (E)-3-[4-(4-hydroxypiperidin-1-yl)benzylidene]-5-[4-(4-methylpiperazine-1-carbonyl)phenyl]indolin-2-one] | 155 ± 6.18 | 1.464 | 106 ± 2.8 nM |  | 1 | 191.383 | 20200 ± 259 | 87800 ± 4290 | selectivity to FGFR1 and FGFR3 |  |  |  |  |
| O=C1Nc2ccc(-c3ccc(C(=O)N4CCCC4)cc3)cc2/C1=C\c1ccc(N2CCC(O)CC2)cc1 [Compound A12, (E)-3-[4-(4-hydroxypiperidin-1-yl)benzylidene]-5-[4-(pyrrolidine-1-carbonyl)phenyl]indolin-2-one] | 646 ± 10.9 | 28.719 | 22.5 ± 0.737 nM | for FGFR3 | 1 | 217.749 | 4890 ± 402 | 4960 ± 187 |  |  |  |  |  |
| CN1CCN(c2ccc(/C=C3/C(=O)Nc4ccc(-c5ccc(C(=O)N6CCOCC6)cc5)cc43)cc2)CC1 [Compound A15, (E)-3-[4-(4-methylpiperazin-1-yl)benzylidene]-5-[4-(morpholine-4-carbonyl)phenyl]indolin-2-one] | 38.7 ± 0.504 | 1 | 38.8 ± 1.35 nM |  | 1.003 | 382.588 | 14800 ± 449 | 9500 ± 260 | selectivity to FGFR1 and FGFR3 |  |  |  |  |
| CN1CCN(c2ccc(/C=C3/C(=O)Nc4ccc(-c5ccc(C(=O)N6CCCCC6)cc5)cc43)cc2)CC1 [Compound A16, (E)-3-[4-(4-methylpiperazin-1-yl)benzylidene]-5-[4-(piperidine-1-carbonyl)phenyl]indolin-2-one] | 256 ± 28.1 | 17.919 | 14.3 nM and 14.2 nM | for FGFR3 | 1 | 1054.660 | 15050 ± 64.1 | 626 ± 140 |  |  |  |  |  |
| CN1CCN(C(=O)c2ccc(-c3ccc4c(c3)/C(=C\c3ccc(N5CCN(C)CC5)cc3)C(=O)N4)cc2)CC1 [Compound A17, (E)-3-[4-(4-methylpiperazin-1-yl)benzylidene]-5-[4-(4-methylpiperazine-1-carbonyl)phenyl]indolin-2-one] | 819.8 ± 3.63 | 61.547 | 13.3 ± 2.93 nM | for FGFR3 | 1 | 542.643 | 7230 ± 288 | 4700 ± 105 |  |  |  |  |  |
| CN1CCN(c2ccc(/C=C3/C(=O)Nc4ccc(-c5ccc(C(=O)N6CCCC6)cc5)cc43)cc2)CC1 [Compound A18, (E)-3-[4-(4-methylpiperazin-1-yl)benzylidene]-5-[4-(pyrrolidine-1-carbonyl)phenyl]indolin-2-one] | 49.2 ± 2.52 | 1 | 156 ± 31.3 nM |  |  | 295.505 | 14500 ± 211 | 2540 ± 146 | selectivity to FGFR1 | 3.167 |  |  |  |
| O=CN1CCN(c2ccc(/C=C3/C(=O)Nc4ccc(-c5ccc6cc(O)ccc6c5)cc43)cc2)CC1 [Compound A25, (E)-4-{4-{[5-(6-hydroxynaphthalen-2-yl)-2-oxoindolin-3-ylidene]methyl}phenyl}piperazine-1-carbaldehyde] | 3976 ± 0.354 | 3.658 | 1090 ± 477 nM |  | 1 | 5.641 | 6130 ± 208 | 24500 ± 306 |  |  |  |  |  |
| O=CN1CCN(c2ccc(/C=C3/C(=O)Nc4ccc(-c5ccc(-c6ccc(O)cc6)cc5)cc43)cc2)CC1 [Compound A26, (E)-4-{4-{[5-(4'-hydroxy-[1,1'-biphenyl]-4-yl)-2-oxoindolin-3-ylidene]methyl}phenyl}piperazine-1-carbaldehyde] |  | 1 |  |  |  | 24.028 |  | 2500 ± 268 |  | 1.14 | 422 ± 40.3 | 481 ± 24.1 | 10100 ± 322 |
| O=CN1CCN(c2ccc(/C=C3/C(=O)Nc4ccc(-c5ccc(C(=O)N6CCCCC6)cc5)cc43)cc2)CC1 [Compound A28, (E)-4-{4-{ {2-oxo-5-[4-(piperidine-1-carbonyl)phenyl]indolin-3-ylidene}methyl}phenyl}piperazine-1-carbaldehyde] | 77.3 ± 3.14 | 2.299 | 33.6 ± 0.574 nM |  | 1 | 209.223 | 7030 ± 244 | 839 ± 232 |  |  |  |  |  |
| CN1CCN(C(=O)c2ccc(-c3ccc4c(c3)/C(=C\c3ccc(N5CCN(C=O)CC5)cc3)C(=O)N4)cc2)CC1 [Compound A29, (E)-4-{4-{ {5-[4-(4-methylpiperazine-1-carbonyl)phenyl]-2-oxoindolin-3-ylidene}methyl}phenyl}piperazine-1-carbaldehyde] | 9130 ± 1760 | 48.818 | 187 ± 4.12 nM |  | 1 | 32.626 | 6100 ± 347 | 10100 ± 251 |  |  |  |  |  |
| O=CN1CCN(c2ccc(/C=C3/C(=O)Nc4ccc(-c5ccc(C(=O)N6CCCC6)cc5)cc43)cc2)CC1 [Compound A30, (E)-4-{4-{ {2-oxo-5-[4-(pyrrolidine-1-carbonyl)phenyl]indolin-3-ylidene}methyl}phenyl}piperazine-1-carbaldehyde] | 67.2 ± 2.92 | 1 | 193 ± 39.3 nM |  |  | 94.136 | 6320 ± 322 | 1590 ± 224 |  | 2.880 |  |  |  |
